Data published in ChEMBL document CHEMBL1201862, “PubChem BioAssay data set” (2004).
Active and inactive are the calls of the source.

Columns and labels:
[1] = molecular target: Voltage-dependent T-type calcium channel subunit alpha-1H (Homo sapiens, UniProt O95180); type: functional;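 further: channel activity triggered by adding a high calcium stimulation buffer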
[2] = molecular target: DNA dC->dU-editing enzyme APOBEC-3A (Homo sapiens, UniProt P31941); experiment: APOBEC3A DNA deaminase inhibitors, dose response, biochemical (AID 504722); type: functional
Sequence of DNA dC->dU-editing enzyme APOBEC-3A (P31941 whole entry): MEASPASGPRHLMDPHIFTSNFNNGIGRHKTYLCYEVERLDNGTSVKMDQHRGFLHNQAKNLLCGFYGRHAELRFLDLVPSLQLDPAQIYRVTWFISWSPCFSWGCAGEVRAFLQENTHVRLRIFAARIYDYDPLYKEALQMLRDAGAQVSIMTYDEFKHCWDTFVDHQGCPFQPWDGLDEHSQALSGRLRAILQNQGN

[3] = molecular target: DNA dC->dU-editing enzyme APOBEC-3G (Homo sapiens, UniProt Q9HC16); experiment: Dose Response confirmation of small molecule APOBEC3G DNA Deaminase Inhibitors via a fluorescence-based single-stranded DNA deaminase assay. [Related pubchem assays (depositor defined):AID493012, AID493028]; type: functional
Sequence of DNA dC->dU-editing enzyme APOBEC-3G (Q9HC16 whole entry): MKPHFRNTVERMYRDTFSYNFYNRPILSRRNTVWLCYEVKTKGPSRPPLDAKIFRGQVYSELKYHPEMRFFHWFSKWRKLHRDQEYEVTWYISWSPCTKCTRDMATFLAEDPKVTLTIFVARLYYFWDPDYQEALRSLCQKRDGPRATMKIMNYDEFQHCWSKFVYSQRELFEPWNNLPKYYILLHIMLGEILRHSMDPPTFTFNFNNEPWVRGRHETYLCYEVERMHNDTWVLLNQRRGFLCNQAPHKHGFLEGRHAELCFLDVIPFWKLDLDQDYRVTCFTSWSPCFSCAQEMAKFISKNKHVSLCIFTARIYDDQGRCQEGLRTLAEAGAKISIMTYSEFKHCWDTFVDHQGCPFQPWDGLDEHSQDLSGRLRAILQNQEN

[4] = inhibitors of firefly luciferase expression or activity, dose response, H4 neuroglioma cells, luminescence (AID 1990); type: functional, cell-based
[5] = Luminescence Cell-Based Dose Response HTS to Identify Inhibitors of 5'UTR Stem-Loop Driven Prion Protein mRNA Translation in H4 Neuroglioblastoma Cells. [Related pubchem assays: 1827 (Project Summary), 1813 (Primary HTS)]; type: functional
[6] = inhibitors of SNCA 5'UTR-driven reporter translation, confirmation, H4 neuroglioma cells, luminescence (AID 1988); type: functional, cell-based
[7] = A cytotoxicity screen of small molecule inhibitors of the PhoP region in Salmonella typhi identified in the primary screen. [Related pubchem assays: 1850, 1864, 1985 ]; type: functional
[8] = molecular target: Melanin-concentrating hormone receptor 1 (Homo sapiens, UniProt Q99705); experiment: Fluorescence-based counterscreen for antagonists of the G-protein coupled receptor 7 (GPR7): cell-based high throughput dose response assay to identify antagonists of the melanin-concentrating hormone receptor 1 (MCHR1).; type: functional
Sequence of Melanin-concentrating hormone receptor 1 (Q99705 whole entry): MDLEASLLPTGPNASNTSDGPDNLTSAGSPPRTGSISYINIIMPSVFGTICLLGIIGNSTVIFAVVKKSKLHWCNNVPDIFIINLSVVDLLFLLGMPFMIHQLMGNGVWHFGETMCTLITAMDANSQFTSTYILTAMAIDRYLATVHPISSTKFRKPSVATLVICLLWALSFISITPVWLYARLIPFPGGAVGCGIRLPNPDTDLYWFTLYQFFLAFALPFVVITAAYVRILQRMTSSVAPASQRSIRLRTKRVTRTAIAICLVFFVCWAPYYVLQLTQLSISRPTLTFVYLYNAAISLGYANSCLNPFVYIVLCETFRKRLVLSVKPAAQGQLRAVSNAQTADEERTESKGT

[9] = HEp-2 cell cytotoxicity, dose response, cytotoxicity control for RSV inhibitor project, HTS (AID 2410); type: functional; conditions: human respiratory syncytial virus
[10] = molecular target: Luciferin 4-monooxygenase (Photinus pyralis, UniProt P08659); experiment: Counter Screen for Luciferase-based Assay Positives. [Related pubchem assays: 620, 618, 411 ]
Sequence of Luciferin 4-monooxygenase (P08659 whole entry): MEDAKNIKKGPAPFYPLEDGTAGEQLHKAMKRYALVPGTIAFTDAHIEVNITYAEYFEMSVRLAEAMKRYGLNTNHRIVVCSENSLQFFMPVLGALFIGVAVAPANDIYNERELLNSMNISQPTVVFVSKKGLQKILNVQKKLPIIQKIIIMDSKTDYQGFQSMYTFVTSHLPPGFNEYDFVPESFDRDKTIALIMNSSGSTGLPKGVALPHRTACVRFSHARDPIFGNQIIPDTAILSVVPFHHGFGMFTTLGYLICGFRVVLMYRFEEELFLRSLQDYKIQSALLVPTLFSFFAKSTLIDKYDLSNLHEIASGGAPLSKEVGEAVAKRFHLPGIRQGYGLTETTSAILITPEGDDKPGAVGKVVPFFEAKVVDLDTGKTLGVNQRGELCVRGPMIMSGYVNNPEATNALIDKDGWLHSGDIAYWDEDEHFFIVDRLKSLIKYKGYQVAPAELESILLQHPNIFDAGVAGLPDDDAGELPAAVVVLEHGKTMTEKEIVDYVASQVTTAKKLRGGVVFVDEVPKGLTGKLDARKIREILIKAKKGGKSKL

HT-1080 = experiment: cytotoxicity in HT1080 fibrosarcoma cells, cell-based, fluorescence readout (AID 620); type: functional; conditions: Homo sapiens
Troponin, cardiac muscle = Troponin, cardiac muscle (Homo sapiens, UniProt P19429+P45379+P63316); experiment: Fluorescence-based biochemical high throughput dose response assay for activators of the calcium sensitivity of cardiac Regulated Thin Filaments (RTF). [Related pubchem assays (depositor defined):AID493008, AID493018, AID504382, AID504383]; type: protein-complex assay
Protein skinhead-1 = molecular target: T1, Protein skinhead-1 (Caenorhabditis elegans, UniProt P34707); type: functional
T1 sequence (P34707 whole entry): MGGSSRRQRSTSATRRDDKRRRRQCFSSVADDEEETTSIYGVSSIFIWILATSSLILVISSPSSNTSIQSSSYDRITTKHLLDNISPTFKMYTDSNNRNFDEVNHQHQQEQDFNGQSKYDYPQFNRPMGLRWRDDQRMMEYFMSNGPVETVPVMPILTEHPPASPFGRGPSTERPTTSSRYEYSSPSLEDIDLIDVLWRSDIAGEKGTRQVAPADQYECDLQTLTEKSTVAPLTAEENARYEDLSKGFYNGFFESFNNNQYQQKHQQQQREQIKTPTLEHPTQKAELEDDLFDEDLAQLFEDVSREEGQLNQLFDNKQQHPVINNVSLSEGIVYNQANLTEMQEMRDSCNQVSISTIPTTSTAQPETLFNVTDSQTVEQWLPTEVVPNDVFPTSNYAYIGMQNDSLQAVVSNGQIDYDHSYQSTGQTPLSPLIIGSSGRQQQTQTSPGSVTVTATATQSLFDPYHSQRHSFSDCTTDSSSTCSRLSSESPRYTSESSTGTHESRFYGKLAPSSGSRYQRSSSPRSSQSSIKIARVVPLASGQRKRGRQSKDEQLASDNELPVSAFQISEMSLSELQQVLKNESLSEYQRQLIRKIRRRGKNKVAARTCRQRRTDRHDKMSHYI

Sequence of Voltage-dependent T-type calcium channel subunit alpha-1H (O95180 whole entry): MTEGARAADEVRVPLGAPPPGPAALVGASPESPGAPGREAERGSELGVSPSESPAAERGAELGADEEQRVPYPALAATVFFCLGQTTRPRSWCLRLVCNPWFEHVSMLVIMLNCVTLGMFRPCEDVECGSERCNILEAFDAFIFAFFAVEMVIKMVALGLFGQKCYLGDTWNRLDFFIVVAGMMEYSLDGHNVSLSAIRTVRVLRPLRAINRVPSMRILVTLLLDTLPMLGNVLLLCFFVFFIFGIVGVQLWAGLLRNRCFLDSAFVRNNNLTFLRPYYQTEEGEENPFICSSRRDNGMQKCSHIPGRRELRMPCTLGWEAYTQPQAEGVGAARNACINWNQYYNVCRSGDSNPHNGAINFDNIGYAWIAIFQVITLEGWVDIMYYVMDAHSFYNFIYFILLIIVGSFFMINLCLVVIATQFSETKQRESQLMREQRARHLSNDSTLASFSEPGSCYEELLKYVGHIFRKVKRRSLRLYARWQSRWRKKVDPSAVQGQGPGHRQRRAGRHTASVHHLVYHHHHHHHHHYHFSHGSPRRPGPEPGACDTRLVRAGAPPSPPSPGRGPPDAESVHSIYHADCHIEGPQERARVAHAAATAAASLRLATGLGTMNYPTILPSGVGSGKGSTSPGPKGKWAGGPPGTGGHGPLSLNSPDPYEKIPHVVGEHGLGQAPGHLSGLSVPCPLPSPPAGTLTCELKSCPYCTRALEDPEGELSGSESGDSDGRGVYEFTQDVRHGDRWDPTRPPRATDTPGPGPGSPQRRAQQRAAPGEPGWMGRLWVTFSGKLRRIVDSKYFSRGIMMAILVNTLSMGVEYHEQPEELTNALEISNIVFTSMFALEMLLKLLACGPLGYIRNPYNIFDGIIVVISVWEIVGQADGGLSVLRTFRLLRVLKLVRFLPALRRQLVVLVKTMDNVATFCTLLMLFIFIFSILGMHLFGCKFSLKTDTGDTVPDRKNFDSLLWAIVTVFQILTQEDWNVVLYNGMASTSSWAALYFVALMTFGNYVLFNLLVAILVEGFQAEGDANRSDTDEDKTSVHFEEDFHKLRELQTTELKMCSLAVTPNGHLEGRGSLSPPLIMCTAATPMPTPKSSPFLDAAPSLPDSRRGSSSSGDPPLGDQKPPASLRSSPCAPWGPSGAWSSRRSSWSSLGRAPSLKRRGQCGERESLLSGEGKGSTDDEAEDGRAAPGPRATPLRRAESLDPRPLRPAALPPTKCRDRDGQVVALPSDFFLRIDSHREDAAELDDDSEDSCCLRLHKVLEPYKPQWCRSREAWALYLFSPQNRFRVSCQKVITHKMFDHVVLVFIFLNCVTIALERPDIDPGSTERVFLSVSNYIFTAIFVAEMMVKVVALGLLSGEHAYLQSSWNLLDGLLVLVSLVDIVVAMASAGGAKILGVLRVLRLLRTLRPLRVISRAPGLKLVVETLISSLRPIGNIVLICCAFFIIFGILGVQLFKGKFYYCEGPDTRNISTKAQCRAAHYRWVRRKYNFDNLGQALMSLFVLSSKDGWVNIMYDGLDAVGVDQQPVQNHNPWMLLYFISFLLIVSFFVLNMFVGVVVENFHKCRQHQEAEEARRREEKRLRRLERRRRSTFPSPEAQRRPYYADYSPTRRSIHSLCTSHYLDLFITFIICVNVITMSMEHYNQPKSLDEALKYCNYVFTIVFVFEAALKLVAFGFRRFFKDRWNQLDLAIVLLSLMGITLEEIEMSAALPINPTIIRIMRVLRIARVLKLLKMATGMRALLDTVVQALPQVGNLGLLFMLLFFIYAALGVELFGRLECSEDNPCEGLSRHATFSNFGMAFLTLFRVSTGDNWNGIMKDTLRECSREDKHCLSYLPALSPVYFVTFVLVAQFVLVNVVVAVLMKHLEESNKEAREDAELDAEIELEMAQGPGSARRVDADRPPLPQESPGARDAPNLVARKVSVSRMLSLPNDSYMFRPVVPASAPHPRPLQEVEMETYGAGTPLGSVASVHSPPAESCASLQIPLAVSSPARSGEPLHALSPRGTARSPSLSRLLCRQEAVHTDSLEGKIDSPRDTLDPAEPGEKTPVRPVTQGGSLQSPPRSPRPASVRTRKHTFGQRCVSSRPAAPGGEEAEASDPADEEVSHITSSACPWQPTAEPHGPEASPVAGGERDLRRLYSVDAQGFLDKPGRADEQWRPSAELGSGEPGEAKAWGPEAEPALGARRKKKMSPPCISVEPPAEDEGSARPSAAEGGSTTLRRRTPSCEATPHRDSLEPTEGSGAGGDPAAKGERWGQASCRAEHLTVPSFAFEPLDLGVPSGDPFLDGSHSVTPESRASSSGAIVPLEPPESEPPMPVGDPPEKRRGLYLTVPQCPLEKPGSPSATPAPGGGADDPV

For CCOc1ccccc1NC(=O)C1CCCN(S(=O)(=O)c2ccc(OC)c(C)c2)C1 (configuration not stated), the EC50 [1] was 13.6 µM (active).
In the case of C=CCn1c(S)nnc1-c1cccc(S(=O)(=O)N(CC)CC)c1, the IC50 [2] is reported as > 100 µM (inactive) and the IC50 [3] is reported as 5.67 µM (active).
For Cc1nc2cc(-c3ccccc3)nn2c(C)c1CCC(=O)N1CCN(c2ccccc2)CC1, the EC50 [4] was 16.6 µM (active), the EC50 [5] was 13.6 µM (active) and the EC50 [6] was 16.1 µM (active). For the same compound, the EC50 [1] was 4.59 µM (active).
With O=C1c2ccccc2C(=O)N1CCC(c1ccccc1)c1ccco1 (configuration not stated) the EC50 [7] was > 50 µM (active).
For O=C(c1ccco1)N1CCN(S(=O)(=O)c2ccc(S(=O)(=O)NC3CCCCC3)cc2)CC1, the IC50 [8] was 23.8 µM (not active).
With Cc1ccc(S(=O)(=O)N2CCCC(c3nc(O)c4nnn(Cc5ccc6c(c5)OCCO6)c4n3)C2)cc1 (configuration not stated) the CC50 [9] was 14.4 µM (active) and the IC50 (cells) was 10.2 µM (active).
With Fc1ccc(-c2nnc(-c3ccc(Cl)cc3Cl)o2)cc1 the CC50 [9] was 37 µM (active), the EC50 [10] was 2.56 µM (active) and the EC50 (HT-1080) was > 50 µM (not active). For the same compound, the EC50 (Troponin, cardiac muscle) was > 71.5 µM (inactive) and the IC50 (Protein skinhead-1) was > 100 µM (inactive).
With Cc1ccccc1NC(NC(=O)c1cccs1)C(Cl)(Cl)Cl (configuration not stated) the EC50 [1] was 5.15 µM (active).
